# Results as given in patent US6737383B1, “Herbicidal oxadiazolidines” (priority 1999, dated 2004).
# Tests used:
# [1] = system: bamyardgrass; experiment: Test B flood test barnyardgrass; format: in vivo, Echinochloa crus-galli
# In short: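 Plants were grown to the 2-leaf stage before treatment with test chemical, then held in a greenhouse for twelve to sixteen days. Injury was visually rated against untreated controls on a 0–10 scale, where 0 is no effect and 10 is complete control.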
# [2] = system: blackgrass; experiment: Test B pre/postemergence blackgrass; format: in vivo, Alopecurus myosuroides
# In short: (§1)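 Herbicidal effect was estimated by eye on a ten-point control scale after plants spent twelve to sixteen days in a greenhouse following soil or foliar treatment. Foliar sprays targeted plants at one to four leaves; all doses were formulated in a non-phytotoxic solvent with surfactant.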
# [3] = system: morningglory; experiment: Test B pre/postemergence morningglory; format: in vivo, Ipomoea hederacea
# In short: as §1
# [4] = system: crabgrass; experiment: Test B pre/postemergence crabgrass; format: in vivo, Digitaria sanguinalis
# In short: as §1
# [5] = Postemergence, Rate 62 g/ha, scale 0 to 10, 0 is no effect, 10 is complete control
# [6] = Rate 125 g/ha, Postemergence section (flood test species), scale 0 to 10, 0 no effect, 10 complete control
# [7] = Rate 500 g/ha, Postemergence section of Table B, 0 to 10 scale (0 no effect, 10 complete control)
# [8] = flood test, listed under Postemergence, Rate 250 g/ha, scale 0 to 10, 0 no effect, 10 complete control
# [9] = Postemergence, Rate 250 g/ha, scale 0 to 10, 0 no effect, 10 complete control
# [10] = Preemergence, Rate 62 g/ha, scale 0 to 10, 0 is no effect, 10 is complete control
# [11] = Preemergence, Rate 125 g/ha, scale 0 to 10 (0 no effect, 10 complete control)
# [12] = Preemergence, Rate 250 g/ha, scale of 0 to 10 where 0 is no effect and 10 is complete control
# [13] = Preemergence, Rate 500 g/ha, scale 0 (no effect) to 10 (complete control)
# [14] = Rate 125 g/ha, Postemergence, scale 0 to 10, 0 no effect, 10 complete control
# [15] = Rate 500 g/ha, Postemergence, 0 to 10 scale (0 no effect, 10 complete control)
# [16] = Rate 500 g/ha, listed under Postemergence (flood test species), scale 0 to 10, 0 no effect, 10 complete control
# [17] = Rate 500 g/ha, Postemergence, scale 0 to 10, 0 no effect, 10 complete control
# [18] = Preemergence, Rate 62 g/ha, scale 0 to 10 (0 no effect, 10 complete control)
# [19] = Postemergence, Rate 125 g/ha, scale of 0 to 10 where 0 is no effect and 10 is complete control
SMILES,"Barnyardgrass plant response rating [1, 5]","Barnyardgrass plant response rating [1, 6]","Barnyardgrass plant response rating [1, 8]","Blackgrass plant response rating [2, 5]","Blackgrass plant response rating [2, 9]","Plant response rating, Blackgrass [2, 11]","Plant response rating, Blackgrass [2, 12]","Blackgrass plant response rating [2, 13]","Blackgrass plant response rating [2, 14]","Morningglory plant response rating [3, 5]","Morningglory plant response rating [3, 9]","Plant response rating, Morningglory [3, 11]","Plant response rating, Morningglory [3, 12]","Morningglory plant response rating [3, 13]","Morningglory plant response rating [3, 14]","Crabgrass plant response rating [4, 5]","Crabgrass plant response rating [4, 9]","Plant response rating, Crabgrass [4, 11]","Plant response rating, Crabgrass [4, 12]","Crabgrass plant response rating [4, 13]",further results
Cc1ccccc1-n1c(=O)on(C(=O)N(c2ccc(Cl)cc2)C(C)C)c1=O [Compound 41],0,0,0,0,3,0,2,4,0,1,2,0,0,0,2,0,5,4,8,10,"Barnyardgrass plant response rating [1, 7]: 0; Plant response rating, Blackgrass [2, 10]: 0; Blackgrass plant response rating [2, 15]: 4; Plant response rating, Morningglory [3, 10]: 0; Morningglory plant response rating [3, 15]: 6; Plant response rating, Crabgrass [4, 10]: 3; Crabgrass plant response rating [4, 14]: 1; Crabgrass plant response rating [4, 15]: 7"
CC(C)Oc1cc(-n2c(=O)on(C(=O)N(c3ccc(F)cc3)C(C)C)c2=O)c(Cl)cc1Cl [Compound 43],0,0,0,0,0,0,0,1,0,2,3,0,0,0,3,1,2,0,0,0,"Barnyardgrass plant response rating [1, 7]: 0; Plant response rating, Blackgrass [2, 10]: 0; Blackgrass plant response rating [2, 15]: 4; Plant response rating, Morningglory [3, 10]: 0; Morningglory plant response rating [3, 15]: 4; Plant response rating, Crabgrass [4, 10]: 0; Crabgrass plant response rating [4, 14]: 2; Crabgrass plant response rating [4, 15]: 2"
CCc1ccccc1-n1c(=O)on(C(=O)N(c2ccc(F)cc2F)C(C)C)c1=O [Compound 45],0,0,0,0,4,0,0,0,0,0,0,0,0,0,0,0,2,1,1,9,"Barnyardgrass plant response rating [1, 7]: 0; Plant response rating, Blackgrass [2, 10]: 0; Blackgrass plant response rating [2, 15]: 4; Plant response rating, Morningglory [3, 10]: 0; Morningglory plant response rating [3, 15]: 3; Plant response rating, Crabgrass [4, 10]: 0; Crabgrass plant response rating [4, 14]: 0; Crabgrass plant response rating [4, 15]: 3"
Cc1ccccc1-n1c(=O)on(C(=O)N(c2ccc(C#N)cc2)C(C)C)c1=O [Compound 51],0,0,0,0,0,0,0,0,0,0,0,0,0,0,0,0,3,0,2,2,"Barnyardgrass plant response rating [1, 16]: 0; Plant response rating, Blackgrass [2, 10]: 0; Blackgrass plant response rating [2, 17]: 0; Plant response rating, Morningglory [3, 10]: 0; Morningglory plant response rating [3, 17]: 1; Plant response rating, Crabgrass [4, 10]: 0; Crabgrass plant response rating [4, 14]: 0; Crabgrass plant response rating [4, 17]: 4"
CCN(C(=O)n1oc(=O)n(-c2c(C)cc(C)cc2C)c1=O)C1CCCCC1 [Compound 63],0,0,0,0,0,0,0,0,0,0,4,0,0,0,2,0,0,0,1,2,"Barnyardgrass plant response rating [1, 16]: 0; Blackgrass plant response rating [2, 18]: 0; Blackgrass plant response rating [2, 17]: 0; Morningglory plant response rating [3, 18]: 0; Morningglory plant response rating [3, 17]: 4; Crabgrass plant response rating [4, 18]: 0; Crabgrass plant response rating [4, 14]: 0; Crabgrass plant response rating [4, 17]: 2"
CC(C)N(C(=O)n1oc(=O)n(Cc2cccs2)c1=O)c1ccc(F)cc1 [Compound 80],0,3,8,2,3,2,4,6,2,7,10,0,0,0,8,2,9,3,10,10,"Barnyardgrass plant response rating [1, 16]: 9; Blackgrass plant response rating [2, 18]: 0; Blackgrass plant response rating [2, 17]: 5; Morningglory plant response rating [3, 18]: 0; Morningglory plant response rating [3, 17]: 10; Crabgrass plant response rating [4, 18]: 3; Crabgrass plant response rating [4, 14]: 9; Crabgrass plant response rating [4, 17]: 9"
CCN(CC)C(=O)n1oc(=O)n(-c2cccc3c2CCCC3)c1=O [Compound 89],0,0,0,0,0,0,0,0,–,0,0,0,0,0,–,0,0,0,0,2,"Barnyardgrass plant response rating [1, 16]: 0; Blackgrass plant response rating [2, 19]: 0; Blackgrass plant response rating [2, 18]: 0; Blackgrass plant response rating [2, 17]: 0; Morningglory plant response rating [3, 19]: 0; Morningglory plant response rating [3, 18]: 0; Morningglory plant response rating [3, 17]: 2; Crabgrass plant response rating [4, 19]: 0; Crabgrass plant response rating [4, 18]: 0; Crabgrass plant response rating [4, 17]: 2"
